From patent US20240285785A1, “TARGETING SORTILIN” (priority 2022, published 2024)
Read-outs that look alike come from different tables or passages of the source.

Experiment: Murine serum stability assay
Format: in vitro ADME, mouse (CD-1)
Conditions: male, CD-1, mouse, 37° C., read-out: Murine serum stability assay, T1/2
Procedure: Serum was drawn from male CD-1 mice by Pharmidex. Lyophilized peptides were solubilized in DMSO and then further diluted into male mouse (CD-1) serum at 37° C. in duplicates. The reaction was incubated at 37° C. and samples extracted at 6 time points: 0, 0.16, 0.5, 1, 3, and 6 hrs. Acetonitrile (ACN) with internal standard (tolbutamide) was added to stop the incubation. Samples were centrifuged, and the supernatant was analyzed by HPLC-MS/MS for the parent compound.

[1] = mouse serum, male CD-1 mouse serum

SMILES	half-life [1] [min]	half-life (serum) [min]
CC(C)C[C@H](NC(=O)[C@H](C)NC(=O)[C@@H]1CCCN1C(=O)[C@H](CC(=O)O)NC(=O)[C@H](CCCNC(=N)N)NC(=O)[C@H](CC(C)C)NC(=O)[C@@H]1CCCN1C(=O)[C@H](C)NC(=O)[C@H](CC(=O)O)NC(=O)[C@H](Cc1c[nH]c2ccccc12)NC(=O)[C@H](CCCNC(=N)N)NC(=O)[C@@H]1CCCN1C(=O)[C@H](C)N)C(=O)N[C@@H](CCCNC(=N)N)C(=O)N[C@@H](CCC(N)=O)C(=O)N[C@@H](CC1CC1)C(=O)N[C@@H](CC1CCC1)C(=O)O [Arb-SAR-Q13]	14.1	
CCCC[C@@H]1NC(=O)[C@H](CCCNC(=N)N)NC(=O)[C@H](Cc2c[nH]cn2)NC(=O)[C@H](CC(N)=O)NC(=O)[C@H](C)NC(=O)[C@@H](NC(=O)[C@@H](NC(=O)[C@H](CCCNC(=N)N)NC(C)=O)C(C)C)CSSC[C@@H](C(=O)N[C@@H](CCCNC(=N)N)C(=O)N[C@@H](CCC(N)=O)C(=O)N[C@H](C(=O)N[C@@H](CC(C)(C)C)C(=O)O)C(C)(C)C)NC(=O)[C@H]([C@@H](C)O)NC(=O)[C@H](CC(N)=O)NC1=O [Arb_cyclic_G16, RVCANHR(Nle)NTCRQ(B13)(F02)]		11.2
CC(=O)N[C@@H](CCC(=O)O)C(=O)N[C@@H](Cc1c[nH]c2ccccc12)C(=O)N[C@H]1CSSC[C@@H](C(=O)N[C@@H](CCCNC(=N)N)C(=O)N[C@@H](CCC(N)=O)C(=O)N[C@H](C(=O)N[C@@H](CC(C)(C)C)C(=O)O)C(C)(C)C)NC(=O)[C@H]([C@@H](C)O)NC(=O)[C@@H]2CCCN2C(=O)[C@H](Cc2c[nH]cn2)NC(=O)[C@H](CC(N)=O)NC(=O)[C@H](Cc2c[nH]cn2)NC(=O)[C@H](CC(C)C)NC(=O)CNC1=O [Arb_cyclic_F3]	173	
CCCC[C@@H]1NC(=O)[C@H](CCCNC(=N)N)NC(=O)[C@H](CCC(N)=O)NC(=O)[C@H](CC(N)=O)NC(=O)[C@H](CCC(=O)O)NC(=O)[C@@H](NC(=O)[C@H](Cc2c[nH]c3ccccc23)NC(=O)[C@H](CCCNC(=N)N)NC(C)=O)CSSC[C@@H](C(=O)N[C@@H](CCCNC(=N)N)C(=O)N[C@@H](CCC(N)=O)C(=O)N[C@H](C(=O)N[C@@H](CC(C)(C)C)C(=O)O)C(C)(C)C)NC(=O)[C@H](C(C)C)NC(=O)[C@H]([C@@H](C)O)NC1=O [Arb_cyclic_G22, RWCENQR(Nle)TVCRQ(B13)(F02)]	49.2	
CC(C)C[C@H](NC(=O)[C@H](C)NC(=O)[C@@H]1CCCN1C(=O)[C@H](CC(=O)O)NC(=O)[C@H](CCCNC(=N)N)NC(=O)[C@H](CC(C)C)NC(=O)[C@@H]1CCCN1C(=O)[C@H](C)NC(=O)[C@H](CC(=O)O)NC(=O)[C@H](Cc1c[nH]c2ccccc12)NC(=O)[C@H](CCCNC(=N)N)NC(=O)[C@@H]1CCCN1C(=O)[C@H](C)N)C(=O)N[C@@H](CCCNC(=N)N)C(=O)N[C@@H](CCC(N)=O)C(=O)N[C@@H](Cc1ccccc1)C(=O)N[C@@H](CC(C)(C)C)C(=O)O [Arb-SAR-P15]	9.79	
CC(=O)N[C@@H](CCCNC(=N)N)C(=O)N[C@H](C(=O)N[C@H]1CSSC[C@@H](C(=O)N[C@@H](CCCNC(=N)N)C(=O)N[C@@H](CCC(N)=O)C(=O)N[C@H](C(=O)N[C@@H](CC(C)(C)C)C(=O)O)C(C)(C)C)NC(=O)[C@H](C)NC(=O)[C@@H]2CCCN2C(=O)[C@H](CC(N)=O)NC(=O)[C@H](CCCNC(=N)N)NC(=O)[C@H](CC(C)C)NC(=O)[C@H](Cc2c[nH]cn2)NC(=O)[C@H](CC(N)=O)NC1=O)[C@@H](C)O [Arb_cyclic_G15]		19.3
CC(C)C[C@H](NC(=O)[C@H](C)NC(=O)[C@@H]1CCCN1C(=O)[C@H](CC(=O)O)NC(=O)[C@H](CCCNC(=N)N)NC(=O)[C@H](CC(C)C)NC(=O)[C@@H]1CCCN1C(=O)[C@H](C)NC(=O)[C@H](CC(=O)O)NC(=O)[C@H](Cc1c[nH]c2ccccc12)NC(=O)[C@H](CCCNC(=N)N)NC(=O)[C@@H]1CCCN1C(=O)[C@H](C)N)C(=O)N[C@@H](CCCNC(=N)N)C(=O)N[C@@H](CCC(N)=O)C(=O)N[C@@H](CC1CC1)C(=O)N[C@@H](CC(C)(C)C)C(=O)O [Arb-SAR-P21]	9.33	
CCCC[C@@H]1NC(=O)[C@H](CCCCN)NC(=O)[C@H](CCCNC(=N)N)NC(=O)[C@@H](NC(=O)[C@H](Cc2ccccc2)NC(=O)[C@@H](NC(=O)[C@H](CC(N)=O)NC(=O)[C@H](CCCNC(=N)N)NC(C)=O)[C@@H](C)CC)CSSC[C@@H](C(=O)N[C@@H](CCC(=O)O)C(=O)N[C@@H](CCCNC(=N)N)C(=O)N[C@@H](CCC(N)=O)C(=O)N[C@H](C(=O)N[C@@H](CC(C)(C)C)C(=O)O)C(C)(C)C)NC1=O [Arb_cyclic_D24, RNIFCRK(Nle)CERQ(B13)(F02)]		80.7
CCCC[C@H](NC(=O)[C@H](CCCNC(=N)N)NC(C)=O)C(=O)N[C@H]1CSSC[C@@H](C(=O)N[C@@H](CCCNC(=N)N)C(=O)N[C@@H](CCC(N)=O)C(=O)N[C@H](C(=O)N[C@@H](CC(C)(C)C)C(=O)O)C(C)(C)C)NC(=O)[C@H](C)NC(=O)[C@@H]2CCCN2C(=O)[C@H](CO)NC(=O)[C@H](CCCNC(=N)N)NC(=O)[C@H]([C@@H](C)CC)NC(=O)[C@@H]2CCCN2C(=O)CNC1=O [Arb_cyclic_G10]	112	
CC(=O)N[C@@H](CCCNC(=N)N)C(=O)N[C@@H](CC(=O)O)C(=O)N[C@H]1CSSC[C@@H](C(=O)N[C@@H](CCCNC(=N)N)C(=O)N[C@@H](CCC(N)=O)C(=O)N[C@H](C(=O)N[C@@H](CC(C)(C)C)C(=O)O)C(C)(C)C)NC(=O)[C@@H]2CCCN2C(=O)[C@@H]2CCCN2C(=O)[C@H](C)NC(=O)[C@H](CCCNC(=N)N)NC(=O)[C@H](CC(C)C)NC(=O)[C@H](CO)NC(=O)[C@H](C)NC1=O [Arb_cyclic_G2]	20.8	
CC(C)C[C@H](NC(=O)[C@H](C)NC(=O)[C@@H]1CCCN1C(=O)[C@H](CC(=O)O)NC(=O)[C@H](CCCNC(=N)N)NC(=O)[C@H](CC(C)C)NC(=O)[C@@H]1CCCN1C(=O)[C@H](C)NC(=O)[C@H](CC(=O)O)NC(=O)[C@H](Cc1c[nH]c2ccccc12)NC(=O)[C@H](CCCNC(=N)N)NC(=O)[C@@H]1CCCN1C(=O)[C@H](C)N)C(=O)N[C@@H](CCCNC(=N)N)C(=O)N[C@@H](CCC(N)=O)C(=O)N[C@@H](Cc1ccccc1)C(=O)N[C@@H](CC1CCC1)C(=O)O [Arb-SAR-Q7]	7.73	
CCCC[C@@H]1NC(=O)[C@H](CCCNC(=N)N)NC(=O)[C@H](CCCNC(=N)N)NC(=O)[C@H](CC(N)=O)NC(=O)[C@H](CCC(=O)O)NC(=O)[C@@H](NC(=O)[C@H](Cc2c[nH]c3ccccc23)NC(=O)[C@H](CCCNC(=N)N)NC(C)=O)CSSC[C@@H](C(=O)N[C@@H](CCCNC(=N)N)C(=O)N[C@@H](CCC(N)=O)C(=O)N[C@H](C(=O)N[C@@H](CC(C)(C)C)C(=O)O)C(C)(C)C)NC(=O)[C@H]([C@@H](C)O)NC(=O)[C@H](Cc2ccccc2)NC1=O [Arb_cyclic_G23, RWCENRR(Nle)FTCRQ(B13)(F02)]	38.1	
CCCC[C@H](NC(=O)[C@@H]1CSSC[C@H](NC(=O)[C@H](Cc2c[nH]cn2)NC(=O)[C@H](Cc2ccccc2)NC(=O)[C@H](CC(N)=O)NC(=O)[C@H](CCCNC(=N)N)NC(C)=O)C(=O)N[C@@H](CCCNC(=N)N)C(=O)N[C@@H](C)C(=O)N[C@@H](CCC(N)=O)C(=O)N1)C(=O)N[C@@H](CCCNC(=N)N)C(=O)N[C@@H](CCC(N)=O)C(=O)N[C@H](C(=O)N[C@@H](CC(C)(C)C)C(=O)O)C(C)(C)C [Arb_cyclic_D21]	13.5	

The remaining lines, values ahead:

half-life [1] [min]	half-life (serum) [min]	SMILES
16.7		CC(C)CC[C@H](NC(=O)[C@H](CCC(C)C)NC(=O)[C@H](CCC(N)=O)NC(=O)[C@H](CCCNC(=N)N)NC(=O)[C@H](CC(C)C)NC(=O)[C@H](C)NC(=O)[C@@H]1CCCN1C(=O)[C@H](CC(=O)O)NC(=O)[C@H](CCCNC(=N)N)NC(=O)[C@H](CC(C)C)NC(=O)[C@@H]1CCCN1C(=O)[C@H](C)NC(=O)[C@H](CC(=O)O)NC(=O)[C@H](Cc1c[nH]c2ccccc12)NC(=O)[C@H](CCCNC(=N)N)NC(=O)[C@@H]1CCCN1C(=O)[C@H](C)N)C(=O)O [Arb-SAR-N22]
11		CC(C)C[C@H](NC(=O)[C@H](CC(C)(C)C)NC(=O)[C@H](CCC(N)=O)NC(=O)[C@H](CCCNC(=N)N)NC(=O)[C@H](CC(C)C)NC(=O)[C@H](C)NC(=O)[C@@H]1CCCN1C(=O)[C@H](CC(=O)O)NC(=O)[C@H](CCCNC(=N)N)NC(=O)[C@H](CC(C)C)NC(=O)[C@@H]1CCCN1C(=O)[C@H](C)NC(=O)[C@H](CC(=O)O)NC(=O)[C@H](Cc1c[nH]c2ccccc12)NC(=O)[C@H](CCCNC(=N)N)NC(=O)[C@@H]1CCCN1C(=O)[C@H](C)N)C(=O)O [Arb-SAR-J21]
11.8		CCCC[C@H](NC(=O)[C@H](CCC(N)=O)NC(=O)[C@H](CCCNC(=N)N)NC(=O)[C@H](CC(C)C)NC(=O)[C@H](C)NC(=O)[C@@H]1CCCN1C(=O)[C@H](CC(=O)O)NC(=O)[C@H](CCCNC(=N)N)NC(=O)[C@H](CC(C)C)NC(=O)[C@@H]1CCCN1C(=O)[C@H](C)NC(=O)[C@H](CC(=O)O)NC(=O)[C@H](Cc1c[nH]c2ccccc12)NC(=O)[C@H](CCCNC(=N)N)NC(=O)[C@@H]1CCCN1C(=O)[C@H](C)N)C(=O)N[C@@H](CC(C)(C)C)C(=O)O [Arb-SAR-P19]
	7.91	CC(C)C[C@H](NC(=O)[C@H](CC(C)C)NC(=O)[C@H](CCC(N)=O)NC(=O)[C@H](CCCNC(=N)N)NC(=O)[C@H](CC(C)C)NC(=O)[C@H](C)NC(=O)[C@@H]1CCCN1C(=O)[C@H](Cc1ccccc1)NC(=O)[C@H](CCCNC(=N)N)NC(=O)[C@H](CC(C)C)NC(=O)[C@@H]1CCCN1C(=O)[C@H](C)NC(=O)[C@H](CC(=O)O)NC(=O)[C@H](Cc1c[nH]c2ccccc12)NC(=O)[C@H](CCCNC(=N)N)NC(=O)[C@@H]1CCCN1C(=O)[C@H](C)N)C(=O)O [Arb-SAR-C14]
11.2		CC(C)C[C@H](NC(=O)[C@H](CC(C)C)NC(=O)[C@H](CCO)NC(=O)[C@H](CCCNC(=N)N)NC(=O)[C@H](CC(C)C)NC(=O)[C@H](C)NC(=O)[C@@H]1CCCN1C(=O)[C@H](CC(=O)O)NC(=O)[C@H](CCCNC(=N)N)NC(=O)[C@H](CC(C)C)NC(=O)[C@@H]1CCCN1C(=O)[C@H](C)NC(=O)[C@H](CC(=O)O)NC(=O)[C@H](Cc1c[nH]c2ccccc12)NC(=O)[C@H](CCCNC(=N)N)NC(=O)[C@@H]1CCCN1C(=O)[C@H](C)N)C(=O)O [Arb-SAR-K3]
